Literature values in patent US20240077492A1, “ARRAY-BASED PEPTIDE LIBRARIES FOR THERAPEUTIC ANTIBODY CHARACTERIZATION” (Cowper Sciences Inc., priority 2016, published 2024).

Conditions: background statement

Which “effective in fraction of the patient population” value does the source give for “Remicade: one of the most prescribed antibody therapeutics” here?
The value was 25%.
